Source: ChEMBL document CHEMBL1201862, “PubChem BioAssay data set” (2004)
The source made the active and inactive calls.

Tests used:
[1] = toxicity toward HepG2 liver cells – cell-based, plate reader, cherry-pick, antagonist series, cytotoxicity control, dose response (AID 743416); assay type: functional
[2] = blockade of melanocortin 4 receptor signaling – cell-based, plate reader, cherry pick, counter-screen for LGR2 antagonist project, dose response (AID 743444); assay type: functional;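 further: transfected HEK 293 cells stimulated with alpha-MSH peptide; potency of inhibitors of the alpha-MSH evoked signal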
[3] = biological target: FAD-linked sulfhydryl oxidase ALR (Homo sapiens, UniProt P55789); experiment: ALR-catalysed DTT oxidation blockers – biochemical, H2O2 detection, luminescence, cherry-pick, dose response (AID 493248)
[4] = Luminescence Cell-Based Dose Retest to Confirm Inhibitors of Cancer Stem Cells. [Related pubchem assays (depositor defined):AID2717, AID2721]; assay type: functional; settings: Homo sapiens
Nonstructural protein 1 = Nonstructural protein 1 (Influenza A virus, UniProt Q194T2); assay type: functional, Influenza A virus (A/California/07/2009(H1N1))
[5] = biological target: T1, Replicative DNA helicase DnaB (Mycobacterium tuberculosis, UniProt P9WMR3); experiment: DnaB intein splicing inhibitors, dose response, biochemical, cell-free fluorescence (AID 449749); assay type: functional
T1 sequence (P9WMR3 whole entry): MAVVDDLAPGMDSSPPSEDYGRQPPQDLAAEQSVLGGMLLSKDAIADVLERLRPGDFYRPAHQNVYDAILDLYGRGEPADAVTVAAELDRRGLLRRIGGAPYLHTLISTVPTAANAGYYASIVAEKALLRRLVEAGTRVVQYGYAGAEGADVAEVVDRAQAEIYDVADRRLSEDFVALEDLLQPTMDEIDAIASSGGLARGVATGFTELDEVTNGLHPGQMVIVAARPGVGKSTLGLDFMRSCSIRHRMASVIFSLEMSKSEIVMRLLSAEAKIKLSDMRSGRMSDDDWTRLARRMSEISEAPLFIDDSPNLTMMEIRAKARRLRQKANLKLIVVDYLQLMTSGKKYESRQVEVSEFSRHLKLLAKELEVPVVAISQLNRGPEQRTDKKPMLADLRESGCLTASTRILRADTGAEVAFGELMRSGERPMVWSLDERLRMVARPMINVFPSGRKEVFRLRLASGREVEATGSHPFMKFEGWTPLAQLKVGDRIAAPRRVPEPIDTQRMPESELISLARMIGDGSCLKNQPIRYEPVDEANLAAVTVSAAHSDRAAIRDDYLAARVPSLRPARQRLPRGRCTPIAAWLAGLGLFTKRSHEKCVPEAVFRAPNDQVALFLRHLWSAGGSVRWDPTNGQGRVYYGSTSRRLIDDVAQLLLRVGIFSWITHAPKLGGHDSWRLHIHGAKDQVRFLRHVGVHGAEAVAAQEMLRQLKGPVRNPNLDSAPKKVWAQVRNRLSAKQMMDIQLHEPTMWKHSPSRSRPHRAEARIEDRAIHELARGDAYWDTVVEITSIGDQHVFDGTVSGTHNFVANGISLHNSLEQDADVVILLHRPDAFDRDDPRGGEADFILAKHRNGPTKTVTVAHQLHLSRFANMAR

Protein RecA = biological target: T2, Protein RecA (Mycobacterium tuberculosis, UniProt P9WHJ3); experiment: Fluorescence Cell-Free Homogeneous Dose Retest to Identify Inhibitors of RecA-Intein Splicing Activity. [Related pubchem assays (depositor defined):AID2097, AID2223, AID489010, AID492950]; assay type: functional
T2 sequence (P9WHJ3 whole entry): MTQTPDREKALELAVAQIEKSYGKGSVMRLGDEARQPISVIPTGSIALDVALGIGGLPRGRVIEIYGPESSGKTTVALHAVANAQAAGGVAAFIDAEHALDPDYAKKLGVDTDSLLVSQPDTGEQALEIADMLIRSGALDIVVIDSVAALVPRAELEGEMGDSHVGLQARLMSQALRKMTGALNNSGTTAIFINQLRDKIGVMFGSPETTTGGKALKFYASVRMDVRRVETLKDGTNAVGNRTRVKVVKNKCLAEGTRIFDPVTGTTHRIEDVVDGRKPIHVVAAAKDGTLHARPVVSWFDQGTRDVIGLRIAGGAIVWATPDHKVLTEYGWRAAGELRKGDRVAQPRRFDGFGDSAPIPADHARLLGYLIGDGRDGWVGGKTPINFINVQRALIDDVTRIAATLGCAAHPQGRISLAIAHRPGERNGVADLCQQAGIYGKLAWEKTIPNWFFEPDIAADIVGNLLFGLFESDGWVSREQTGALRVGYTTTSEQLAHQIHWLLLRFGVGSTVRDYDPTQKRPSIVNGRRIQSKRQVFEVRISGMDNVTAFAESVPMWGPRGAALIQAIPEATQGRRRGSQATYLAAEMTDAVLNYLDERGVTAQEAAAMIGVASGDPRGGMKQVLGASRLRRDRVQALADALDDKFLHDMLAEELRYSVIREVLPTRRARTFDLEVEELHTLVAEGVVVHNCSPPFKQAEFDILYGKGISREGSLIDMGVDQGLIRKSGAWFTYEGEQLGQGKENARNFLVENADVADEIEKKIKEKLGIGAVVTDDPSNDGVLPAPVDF

H9c2 = experiment: cells; assay type: functional, cell-based; settings: Rattus norvegicus, H9c2, Myocardium;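 further: confirmatory concentration-response retest of ultra-high-throughput screening hits for modulation of myocardial damage; cell death induced by hydrogen peroxide oxidative stress; compound pretreatment for 60 min then peroxide exposure for 2 h; potency is for protecting the cells against peroxide damage rather than for killing them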
[6] = NIH-3T3 fibroblast cytotoxicity, dose response, cytotoxicity control, cell-based, fluorescence, Alamar Blue, secondary assay (AID 2327); assay type: functional;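 further: NIH-3T3 mouse fibroblasts cultured with fluconazole at 8 µg/mL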
[7] = fluconazole-exposed Candida albicans growth modulators – fluorescence, retest, confirmation (AID 2467); assay type: functional, cell-based
[8] = biological target: T3, Corticotropin-releasing factor receptor 2/Corticotropin-releasing factor-binding protein (Homo sapiens, UniProt P24387+Q13324); experiment: activators of CRF receptor 2 with binding protein – uHTS hits, confirmation (AID 602473); assay type: functional; settings: read-out: EC50_Mean
T3 sequence (Q13324 whole entry): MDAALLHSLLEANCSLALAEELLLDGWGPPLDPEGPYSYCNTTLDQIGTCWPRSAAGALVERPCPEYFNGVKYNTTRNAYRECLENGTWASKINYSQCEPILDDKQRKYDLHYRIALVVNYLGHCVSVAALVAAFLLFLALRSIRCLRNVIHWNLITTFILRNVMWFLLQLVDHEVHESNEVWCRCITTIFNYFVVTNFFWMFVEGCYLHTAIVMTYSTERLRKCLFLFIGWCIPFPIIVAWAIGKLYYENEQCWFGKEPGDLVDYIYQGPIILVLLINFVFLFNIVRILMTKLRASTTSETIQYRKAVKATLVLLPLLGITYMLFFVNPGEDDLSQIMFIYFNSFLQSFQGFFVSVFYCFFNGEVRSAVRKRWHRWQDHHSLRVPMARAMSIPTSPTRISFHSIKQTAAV
T3 sequence (P24387 whole entry): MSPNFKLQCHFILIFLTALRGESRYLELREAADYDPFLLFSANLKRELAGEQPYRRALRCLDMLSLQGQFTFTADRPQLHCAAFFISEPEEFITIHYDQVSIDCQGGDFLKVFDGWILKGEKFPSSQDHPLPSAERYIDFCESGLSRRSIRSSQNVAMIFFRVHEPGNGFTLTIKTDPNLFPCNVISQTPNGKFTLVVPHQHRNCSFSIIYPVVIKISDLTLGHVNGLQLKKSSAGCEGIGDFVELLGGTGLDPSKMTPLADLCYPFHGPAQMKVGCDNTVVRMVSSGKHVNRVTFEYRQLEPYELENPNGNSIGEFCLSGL

[9] = microbe, parasite or virus in culture; assay type: functional; settings: Mycobacterium tuberculosis
[10] = Trypanosoma cruzi growth suppression in host cells – NIH3T3 host cells, beta-gal luminescence, confirmation (AID 2044); assay type: functional, cell-based;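 further: intracellular parasites grown in NIH/3T3 mouse fibroblasts as host cells; luminescent beta-galactosidase reporter signal from transgenic T. cruzi replicating inside host cells; inhibitors lower the luminescence signal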
[11] = NIH3T3 cell viability loss – ATP luminescence, mouse fibroblasts, counter-screen, dose response (AID 2010); assay type: functional, cell-based;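 further: cells exposed to compound for about 90 hours before reading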
[12] = A549 cell cytotoxicity, dose response, cytotoxicity control, plate reader, cherry-pick, antagonist series (AID 743412); assay type: functional, cell-based
[13] = test system: Streptococcus sp. 'group A'; experiment: Streptococcus pyogenes SK(-)GAS viability under kanamycin – luminescence, BacTiterGlo, confirmation, counter-screen for streptokinase expression inhibitor project, dose response (AID 1900); assay type: functional, organism-based
Streptococcus = experiment: GAS UMAA2166 growth inhibition – luminescence, BacTiterGlo, counter-screen for streptokinase expression inhibitor project, dose response (AID 1915); assay type: functional, organism-based;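 further: potency for reduction of bacterial viability or growth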
Fatty acid synthase = Fatty acid synthase (Homo sapiens, UniProt P49327); experiment: inhibition of human FAS-TE enzyme activity – biochemical, kinetic fluorescence intensity, dose response (AID 624326); assay type: functional;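 further: rate of fluorescence rise from hydrolysis of a fluorogenic O-methyl fluorescein ester substrate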
[14] = luciferase reporter signal suppression in cells – H4 neuroglioma cells, luminescence, dose response (AID 1990); assay type: functional, cell-based
[15] = Luminescence Cell-Based Dose Response HTS to Identify Inhibitors of 5'UTR Stem-Loop Driven Prion Protein mRNA Translation in H4 Neuroglioblastoma Cells. [Related pubchem assays: 1827 (Project Summary), 1813 (Primary HTS)]; assay type: functional
[16] = alpha-synuclein stem-loop luciferase translation blockers – H4 neuroglioma cells, luminescence, confirmation (AID 1988); assay type: functional, cell-based

FAD-linked sulfhydryl oxidase ALR, sequence (P55789 whole entry): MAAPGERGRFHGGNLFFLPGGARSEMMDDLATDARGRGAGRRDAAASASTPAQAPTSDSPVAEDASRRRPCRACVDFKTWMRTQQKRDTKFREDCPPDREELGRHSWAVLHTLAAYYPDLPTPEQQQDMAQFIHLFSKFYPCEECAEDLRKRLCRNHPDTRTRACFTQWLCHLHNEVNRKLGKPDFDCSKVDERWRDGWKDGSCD
Nonstructural protein 1, sequence (Q194T2 whole entry): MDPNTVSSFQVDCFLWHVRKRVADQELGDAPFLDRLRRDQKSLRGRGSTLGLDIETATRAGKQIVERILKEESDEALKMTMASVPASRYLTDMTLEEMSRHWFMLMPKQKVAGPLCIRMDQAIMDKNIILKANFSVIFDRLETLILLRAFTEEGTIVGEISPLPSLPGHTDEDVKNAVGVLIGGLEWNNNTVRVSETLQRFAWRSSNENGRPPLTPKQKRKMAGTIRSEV
Fatty acid synthase, sequence (P49327 whole entry): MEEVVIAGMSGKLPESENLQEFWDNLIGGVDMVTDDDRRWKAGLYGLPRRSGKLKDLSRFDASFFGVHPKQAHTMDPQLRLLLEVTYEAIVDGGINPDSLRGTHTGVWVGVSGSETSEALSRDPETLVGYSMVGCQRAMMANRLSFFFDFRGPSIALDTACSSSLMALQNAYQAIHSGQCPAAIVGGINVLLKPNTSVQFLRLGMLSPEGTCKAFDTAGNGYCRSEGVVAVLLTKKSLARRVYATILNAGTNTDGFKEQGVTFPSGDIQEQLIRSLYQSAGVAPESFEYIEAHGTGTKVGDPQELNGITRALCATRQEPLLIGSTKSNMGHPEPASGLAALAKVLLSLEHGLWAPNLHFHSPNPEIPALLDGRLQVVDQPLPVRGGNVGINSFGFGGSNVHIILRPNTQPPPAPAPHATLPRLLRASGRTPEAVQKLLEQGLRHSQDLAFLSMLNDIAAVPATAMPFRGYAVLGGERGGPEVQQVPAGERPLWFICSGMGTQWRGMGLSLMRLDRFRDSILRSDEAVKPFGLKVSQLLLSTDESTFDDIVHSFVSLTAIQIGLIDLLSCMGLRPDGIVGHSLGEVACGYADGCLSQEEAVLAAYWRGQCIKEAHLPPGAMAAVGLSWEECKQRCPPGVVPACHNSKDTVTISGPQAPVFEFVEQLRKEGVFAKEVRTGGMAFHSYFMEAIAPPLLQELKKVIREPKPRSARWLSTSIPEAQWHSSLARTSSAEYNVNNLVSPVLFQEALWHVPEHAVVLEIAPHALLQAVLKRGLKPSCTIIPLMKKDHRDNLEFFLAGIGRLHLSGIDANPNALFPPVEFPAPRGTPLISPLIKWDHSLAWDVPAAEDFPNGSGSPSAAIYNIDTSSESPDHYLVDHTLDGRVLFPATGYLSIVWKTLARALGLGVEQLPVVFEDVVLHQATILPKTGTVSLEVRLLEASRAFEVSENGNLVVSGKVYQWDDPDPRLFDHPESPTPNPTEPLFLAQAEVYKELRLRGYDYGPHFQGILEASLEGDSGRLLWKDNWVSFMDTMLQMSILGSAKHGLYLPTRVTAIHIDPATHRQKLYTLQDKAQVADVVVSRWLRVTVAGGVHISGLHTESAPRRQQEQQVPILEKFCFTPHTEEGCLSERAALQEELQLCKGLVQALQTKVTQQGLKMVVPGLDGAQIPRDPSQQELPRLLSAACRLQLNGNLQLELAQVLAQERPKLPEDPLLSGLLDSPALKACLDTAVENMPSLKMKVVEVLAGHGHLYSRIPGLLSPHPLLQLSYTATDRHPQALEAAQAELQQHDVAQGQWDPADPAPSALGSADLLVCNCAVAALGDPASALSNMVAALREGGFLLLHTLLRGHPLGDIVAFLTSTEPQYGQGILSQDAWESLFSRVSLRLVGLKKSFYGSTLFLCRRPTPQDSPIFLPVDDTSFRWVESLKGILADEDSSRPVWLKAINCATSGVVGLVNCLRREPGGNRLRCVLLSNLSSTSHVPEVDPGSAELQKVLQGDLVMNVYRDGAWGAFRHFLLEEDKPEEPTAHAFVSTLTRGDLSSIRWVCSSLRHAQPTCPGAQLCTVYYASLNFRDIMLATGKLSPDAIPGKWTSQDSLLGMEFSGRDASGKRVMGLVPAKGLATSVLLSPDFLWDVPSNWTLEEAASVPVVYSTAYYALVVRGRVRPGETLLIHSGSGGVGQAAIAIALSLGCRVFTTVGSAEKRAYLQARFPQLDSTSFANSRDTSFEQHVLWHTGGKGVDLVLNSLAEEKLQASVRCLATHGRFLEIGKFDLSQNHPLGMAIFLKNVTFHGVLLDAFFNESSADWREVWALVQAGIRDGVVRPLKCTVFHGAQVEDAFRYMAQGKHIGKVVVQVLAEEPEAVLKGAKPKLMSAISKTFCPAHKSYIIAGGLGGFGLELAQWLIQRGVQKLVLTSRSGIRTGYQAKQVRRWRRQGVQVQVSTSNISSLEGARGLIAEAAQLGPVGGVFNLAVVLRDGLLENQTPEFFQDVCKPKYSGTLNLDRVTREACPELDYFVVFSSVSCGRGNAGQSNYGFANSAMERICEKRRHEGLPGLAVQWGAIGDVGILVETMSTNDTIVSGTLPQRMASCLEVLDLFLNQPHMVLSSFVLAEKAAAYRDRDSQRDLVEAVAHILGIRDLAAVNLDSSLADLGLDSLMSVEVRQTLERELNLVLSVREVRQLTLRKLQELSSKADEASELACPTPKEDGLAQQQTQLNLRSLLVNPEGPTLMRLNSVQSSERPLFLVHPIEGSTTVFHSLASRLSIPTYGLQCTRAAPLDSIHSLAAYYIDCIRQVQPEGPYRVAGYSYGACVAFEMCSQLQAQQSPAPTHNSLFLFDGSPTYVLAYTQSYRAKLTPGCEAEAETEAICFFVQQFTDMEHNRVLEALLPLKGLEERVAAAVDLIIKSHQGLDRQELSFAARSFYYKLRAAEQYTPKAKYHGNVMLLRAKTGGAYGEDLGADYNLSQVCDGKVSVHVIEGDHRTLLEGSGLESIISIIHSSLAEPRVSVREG

C[C@H](CO)N1C[C@H](C)[C@H](CN(C)C(=O)Cc2ccccc2)OCCCC[C@H](C)Oc2ccc(NC(=O)Nc3ccc(C(F)(F)F)cc3)cc2C1=O
AC50 [1]: 35 µM (active)
AC50 [2]: 4.79 µM (active)

O=C(CCc1ccccc1)N1CCN(c2ccc(F)cc2)CC1
AC50 [3]: 13.8 µM (active)

Cn1c(CNc2ccc(Br)cc2)nc2ccccc21
AC50 [3]: 14.6 µM (active)

COC(=O)C1CSC(C(=O)OC)N1C(=O)CN1CCN(c2ccccc2)CC1 (stereo not drawn)
AC50 [3]: 2.84 µM (active)

O=C(O)c1cccc(N/N=C(\N=Nc2ccccc2)c2ccccc2)c1
AC50 [4]: 2.45 µM (active)
IC50 (Nonstructural protein 1): 34.5 µM (active)
AC50 [5]: 7.75 µM (active)
EC50 (Protein RecA): 51.1 µM (active)

Nc1nonc1-n1nnc(C(=O)N/N=C/c2ccccn2)c1CNc1ccccc1
IC50 (H9c2): 18.1 µM (active)

COc1cc(C(=O)NCC(c2cccnc2)N2CCN(c3ccccc3)CC2)cc(OC)c1OC (stereo not drawn)
AC50 [3]: 3.41 µM (active)

CCOC(=O)c1ccc(NC(=O)Nc2ccn(C)n2)cc1
EC50 [6]: > 150 µM (inconclusive)
EC50 [7]: 4.84 µM (active)

CC1(C)CS/C(=N\Cc2ccccc2)N1C(=O)c1cccc([N+](=O)[O-])c1
EC50 [8]: 7.16 µM (active)

CCc1noc(C)c1C(=O)Nc1nc(-c2ccc(F)cc2)c(C)s1
CC50 [9]: > 40 µM (active)

CCCCN(C)C(=O)Cc1c(OC)ccc2cc(Br)ccc12
CC50 [9]: > 40 µM (active)

CC(OC(=O)CCc1nc(O)c2ccccc2n1)C(=O)NC1CCCC1 (stereo not drawn)
IC50 (H9c2): 30.3 µM (inactive)

CC(C)OC(=O)C(=O)NNc1ccccc1
EC50 [6]: 1.21 µM (active)
EC50 [7]: > 38 µM (not active)
EC50 [10]: 0.792 µM (active)
EC50 [11]: < 6 µM (inconclusive)
AC50 [4]: 0.731 µM (active)

CCCCN(Cc1nc(O)c2ccccc2n1)C(=O)CN1C(=O)NC2(CCCCC2)C1=O
IC50 (H9c2): 16.4 µM (active)

CCC(c1nnnn1Cc1ccco1)N(Cc1cc2cc(C)cc(C)c2nc1O)CC1CCCO1 (stereo not drawn)
IC50 (H9c2): > 79 µM (inactive)

Cc1cc(N2C(=O)C(O)=C(C(=O)c3cc4ccccc4o3)C2c2cccs2)no1 (stereo not drawn)
EC50 [6]: 70.9 µM (active)
EC50 [7]: 1.17 µM (active)

OC[C@H]1[C@@H](c2ccc(-c3ccc(F)cc3)cc2)[C@@H]2CN(Cc3ccccn3)CCCCN12
AC50 [12]: 22 µM (active)
AC50 [1]: 19.1 µM (active)
AC50 [2]: 37.5 µM (active)

Cc1c(C(=O)Nc2nc3ccccc3[nH]2)oc2c(Cl)cccc12
EC50 [13]: 1.72 µM (active)
EC50 [10]: 1.68 µM (active)
CC50 [9]: 32.4 µM (active)
EC50 [11]: > 60 µM (not active)
EC50 (Streptococcus): 8.37 µM (active)

COc1ccc(CNC(=O)/C=C/c2cc([N+](=O)[O-])ccc2OC(F)F)cc1OC
IC50 (Fatty acid synthase): 3.28 µM (active)

Cc1ccc(C(C(=O)NCc2ccccc2)N(Cc2ccco2)C(=O)c2snc(C(N)=O)c2N)o1 (stereo not drawn)
IC50 (H9c2): > 79 µM (inactive)

CCOc1ccc(N2CCc3c(C)nc(SC)nc32)cc1
CC50 [9]: 34.9 µM (active)

COc1ccc(CNC(=O)c2ccc(Cn3nc(C)c([N+](=O)[O-])c3C)o2)cc1
IC50 (H9c2): > 79 µM (inactive)

Cc1cc(C)nc(NC(N)=Nc2ccc(CC(=O)OC(C)C)cc2)n1
EC50 [8]: 2.56 µM (active)

CCCOP(=O)(OCCC)c1c([N+](=O)[O-])cc(C(F)(F)F)cc1[N+](=O)[O-]
CC50 [9]: 24.2 µM (active)

COc1ccccc1C(=O)NCC(=O)N/N=C/c1cc(Br)ccc1OC(=O)/C=C\c1ccco1
EC50 [14]: 11.9 µM (active)
EC50 [15]: 12 µM (active)
EC50 [16]: 11 µM (active)
IC50 (H9c2): > 79 µM (inactive)

O=C(CCc1nc(O)c2ccccc2n1)NNC(=O)c1ccccc1Cl
IC50 (H9c2): 16.2 µM (active)

O=C(Nc1cccc(/N=C/c2cc(Cl)cc(Br)c2O)c1)c1ccco1
IC50 (H9c2): 12.3 µM (active)

Cc1cc(-c2cccs2)c2c(N)c(C(=O)c3ccc4c(c3)OCO4)sc2n1
EC50 [8]: 7.29 µM (active)

O=C(CC(NCCN1CCOCC1)C(=O)O)Nc1cccc(Cl)c1 (stereo not drawn)
EC50 [6]: 86.4 µM (active)
EC50 [7]: > 38 µM (not active)

CCCCn1c(NC(C)CC)nc2c1c(=O)[nH]c(=O)n2C (stereo not drawn)
AC50 [3]: 4.01 µM (active)

Oc1ccc(NCc2nnc(O)c3ccccc23)cc1
IC50 (H9c2): > 79 µM (inactive)

Cc1cccc(OCCn2nc(C(=O)O)c3ccccc3c2=O)c1
IC50 (H9c2): > 79 µM (inactive)

Cc1ccc(NS(=O)(=O)c2ccc(C(=O)N3CCCC(C(F)(F)F)C3)cc2)cc1 (stereo not drawn)
EC50 [8]: 5.17 µM (active)

O=C(CCS(=O)(=O)c1ccccc1)Nc1nnc(C(F)(F)F)s1
EC50 [6]: > 160 µM (inactive)
EC50 [7]: 0.302 µM (active)

Cc1cccc(Oc2ccc(NC(=O)c3ccccc3C(=O)O)cc2)c1
AC50 [3]: 5.07 µM (active)

Cc1ccc(-c2nc(Nc3cccc(C)c3)sc2CC(=O)O)cc1
AC50 [3]: 9.95 µM (active)

COC(=O)c1scc(C)c1NC(=O)c1ccccc1F
EC50 [8]: > 53 µM (inactive)
